Molecular target: T1, glutathione S-transferase (GST)-fused full-length human Syk protein (Homo sapiens, UniProt P43405)
T1 construct: (GST)-fused full-length human Syk protein; GST (glutathione S-transferase); purchased Carna Biosciences
Test: Syk enzyme assay
Format: biochemical
Conditions: Syk enzyme assay, Test Example 1; read-out: IC50 of Syk-inhibitory activity
Method in brief: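 IC50 values come from a time-resolved FRET readout (615 and 665 nm) of substrate phosphorylation, measured after an EDTA stop and 1 h antibody binding. The kinase reaction ran 40 min at room temperature with 27 μM ATP and 0.4 μM biotin-peptide, following a 15 min compound preincubation with baculovirus-made GST-full-length human Syk.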

Structure (SMILES)	IC50
NC(=O)c1cc(F)c(N[C@@H]2CCCC[C@@H]2N)nc1Nc1ccc(N2CC3(COC3)C2)nc1 [Example 006-467, 2-((6-(2-oxa-6-azaspiro[3.3]heptane-6-yl)pyridin-3-yl)amino)-6-(((1R,2S)-2-aminocyclohexyl)amino)-5-fluoronicotinamide]	0.01 to 0.05 µM
NC(=O)c1cc(F)c(N[C@@H]2CCCC[C@@H]2N)nc1Nc1ccc2c(F)nn(C3CC3)c2c1 [Example 006-476, 6-(((1R,2S)-2-aminocyclohexyl)amino)-2-((1-cyclopropyl-3-fluoro-1H-indazol-6-yl)amino)-5-fluoronicotinamide]	< 0.01 µM
CCCc1nn(C2CC2)c2ccc(Nc3nc(N[C@@H]4CCCC[C@@H]4N)c(F)cc3C(N)=O)cc12 [Example 006-479, 6-(((1R,2S)-2-aminocyclohexyl)amino)-2-((1-cyclopropyl-3-propyl-1H-indazol-5-yl)amino)-5-fluoronicotinamide]	< 0.01 µM
C[C@H](N)[C@@H](CC1CC1)Nc1nc(Nc2ccc3c(F)nn(C4CC4)c3c2)c(C(N)=O)cc1F [Example 006-481, 6-(((2R,3S)-3-amino-1-cyclopropylbutan-2-yl)amino)-2-((1-cyclopropyl-3-fluoro-1H-indazol-6-yl)amino)-5-fluoronicotinamide]	0.1 to 1 µM
CCCc1nn(C2CC2)c2ccc(Nc3nc(N[C@H](CC4CC4)[C@H](C)N)c(F)cc3C(N)=O)cc12 [Example 006-482, 6-(((2R,3S)-3-amino-1-cyclopropylbutan-2-yl)amino)-2-((1-cyclopropyl-3-propyl-1H-indazol-5-yl)amino)-5-fluoronicotinamide]	< 0.01 µM
COCCn1nc(F)c2c(Nc3nc(N[C@H](CC4CC4)[C@H](C)N)c(F)cc3C(N)=O)cccc21 [Example 006-490, 6-(((2R,3S)-3-amino-1-cyclopropylbutan-2-yl)amino)-5-fluoro-2-((3-fluoro-1-(2-methoxyethyl)-1H-indazol-4-yl)amino)nicotinamide]	0.05 to 0.1 µM
C[C@H](N)[C@@H](CC1CC1)Nc1nc(Nc2cccc3c2c(F)nn3CCF)c(C(N)=O)cc1F [Example 006-491, 6-(((2R,3S)-3-amino-1-cyclopropylbutan-2-yl)amino)-5-fluoro-2-((3-fluoro-1-(2-fluoroethyl)-1H-indazol-4-yl)amino)nicotinamide]	0.01 to 0.05 µM
COc1cc(Nc2nc(NC3CN(C(=O)OCc4ccccc4)CCC3N)c(F)cc2C(N)=O)ccn1 [Example 006-529, (3R,4S)-benzyl 4-amino-3-((5-carbamoyl-3-fluoro-6-((2-methoxypyridin-4-yl)amino)pyridin-2-yl)amino)piperidine-1-carboxylate) and (3S,4R)-benzyl-4-amino-3-((5-carbamoyl-3-fluoro-6-((2-methoxypyridin-4-yl)amino)pyridin-2-yl)amino)piperidine-1-carboxylate(=1:1)]	0.1 to 1 µM
COc1cc(Nc2nc(NC3CCN(C(=O)OCc4ccccc4)CC3N)c(F)cc2C(N)=O)ccn1 [Example 006-530, (3S,4R)-benzyl 3-amino-4-((5-carbamoyl-3-fluoro-6-((2-methoxypyridin-4-yl)amino)pyridin-2-yl)amino)piperidine-1-carboylate and (3R,4S)-benzyl 3-amino-4-((5-carbamoyl-3-fluoro-6-((2-methoxypyridin-4-yl)amino)pyridin-2-yl)amino)piperidine-1-carboxylate(=1:1)]	< 0.01 µM

Now from value to molecule:

IC50	Structure (SMILES)
0.01 to 0.05 µM	C[C@H](N)[C@@H](CC1CC1)Nc1nc(Nc2cccc3c2c(F)nn3CC(F)F)c(C(N)=O)cc1F [Example 006-492, 6-(((2R,3S)-3-amino-1-cyclopropylbutan-2-yl)amino)-2-((1-(2,2-difluoroethyl)-3-fluoro-1H-indazol-4-yl)amino)-5-fluoronicotinamide]
0.05 to 0.1 µM	NC(=O)c1cc(F)c(N[C@@H]2CCCC[C@@H]2N)nc1Nc1cnc(O)c(-n2nccn2)c1 [Example 006-504, 6-(((1R,2S)-2-aminocyclohexyl)amino)-5-fluoro-2-((6-hydroxy-5-(2H-1,2,3-triazol-2-yl)pyridin-3-yl)amino)nicotinamide]
0.05 to 0.1 µM	C[C@H](N)[C@H](Nc1nc(Nc2cnc3c(c2)OCO3)c(C(N)=O)cc1F)C1CC1 [Example 006-514, 2-([1,3]dioxolo[4,5-b]pyridin-6-ylamino)-6-(((1R,2S)-2-amino-1-cyclopropylpropyl)amino)-5-fluoronicotinamide]
0.05 to 0.1 µM	COCCOc1ncc(Nc2nc(N[C@@H]3CCCC[C@@H]3N)c(F)cc2C(N)=O)cc1-n1ccnn1 [Example 006-518, 6-(((1R,2S)-2-aminocyclohexyl)amino)-5-fluoro-2-((6-(2-methoxyethoxy)-5-(1H-1,2,3-triazol-1-yl)pyridin-3-yl)amino)nicotinamide]
0.05 to 0.1 µM	NC(=O)c1cc(F)c(N[C@@H]2CCCC[C@@H]2N)nc1Nc1cnc(N2CCOCC2)c(-n2cccn2)c1 [Example 006-527, 6-(((1R,2S)-2-aminocyclohexyl)amino)-5-fluoro-2-((6-morpholino-5-(1H-pyrazol-1-yl)pyridin-3-yl)amino)nicotinamide]
0.01 to 0.05 µM	NC(=O)c1cc(F)c(N[C@@H]2CCCC[C@@H]2N)nc1Nc1cnc(N2CCOCC2)c(C2CC2)c1 [Example 006-528, 6-(((1R,2S)-2-aminocyclohexyl)amino)-2-((5-cyclopropyl-6-morpholinopyridin-3-yl)amino)-5-fluoronicotinamide]
0.1 to 1 µM	COc1cc(Nc2nc(N[C@@H]3COCC[C@@H]3N)c(F)cc2C(N)=O)ccn1 [Example 006-532, 6-(((3S,4S)-4-aminotrahydro-2H-pyran-3-yl)amino)-5-fluoro-2-((2-methoxypyridin-4-yl)amino)nicotinamide]
0.01 to 0.05 µM	NC(=O)c1cc(F)c(N[C@@H]2CCCC[C@@H]2N)nc1Nc1cnc(N2CCOCC2)c(-n2nccn2)c1 [Example 006-533, 6-(((1R,2S)-2-aminocyclohexyl)amino)-5-fluoro-2-((6-morpholino-5-(2H-1,2,3-triazol-2-yl)pyridin-3-yl)amino)nicotinamide]
0.1 to 1 µM	NC(=O)c1cc(F)c(N[C@@H]2CCCC[C@@H]2N)nc1Nc1cnc(N2CCOCC2)c(-n2ccnn2)c1 [Example 006-534, 6-(((1R,2S)-2-aminocyclohexyl)amino)-5-fluoro-2-((6-morpholino-5-(1H-1,2,3-triazol-1-yl)pyridin-3-yl)amino)nicotinamide]
0.05 to 0.1 µM	NC(=O)c1cc(F)c(N[C@@H]2CCCC[C@@H]2N)nc1Nc1ccc(-n2ccnc2)nc1 [Example 006-535, 2-((6-(1H-imidazole-1-yl)pyridin-3-yl)amino)-6-(((1R,2S)-2-aminocyclohexyl)amino)-5-fluoronicotinamide]
0.1 to 1 µM	Cc1nccn1-c1ccc(Nc2nc(N[C@@H]3CCCC[C@@H]3N)c(F)cc2C(N)=O)cn1 [Example 006-536, 6-(((1R,2S)-2-aminocyclohexyl)amino)-5-fluoro-2-((6-(2-methyl-1H-imidazol-1-yl)pyridin-3-yl)amino)nicotinamide]
< 0.01 µM	CCc1nn(C)c2ccc(Nc3nc(N[C@H](CC(C)C)[C@H](C)N)c(F)cc3C(N)=O)cc12 [Example 006-538, 6-(((2S,3R)-2-amino-5-methylhexan-3-yl)amino)-2-((3-ethyl-1-methyl-1H-indazol-5-yl)amino)-5-fluoronicotinamide]

— patent US8895585B2, “Nicotinamide derivative or salt thereof” (FUJIFILM Corporation, priority 2010, dated 2014)
